Data taken from the SangsterLogP compilation.

Experiment: method code SF-HPLC, from DOI: 10.1080/01483919108049310
Settings: pH 8.5

| SMILES | logD |
| --- | --- |
| Cc1nn(-c2ccccc2)c(NN=Cc2ccc3c(c2[N+](=O)[O-])OCO3)c1[N+](=O)[O-] | 3.39 |
| Cc1ccccc1Nc1c([N+](=O)[O-])c(C)nn1-c1ccccc1 | 3.8 |
| Cc1nn(-c2ccccc2)c(Nc2ccc(Cl)cn2)c1[N+](=O)[O-] | 3.74 |
| Cc1cccc(Nc2c([N+](=O)[O-])c(C)nn2-c2ccccc2)c1 | 3.25 |
| Cc1nn(-c2ccccc2)c(Nc2ccccc2)c1[N+](=O)[O-] | 2.98 |

The remaining lines, values ahead:

| logD | SMILES |
| --- | --- |
| 3.89 | Cc1nn(-c2ccccc2)c(Nc2ccc(C(F)(F)F)cc2)c1[N+](=O)[O-] |
| 3.43 | Cc1ccc(Nc2c([N+](=O)[O-])c(C)nn2-c2ccccc2)cc1 |
| 2.78 | Cc1nn(-c2ccccc2)c(Nc2ccc([N+](=O)[O-])cc2)c1[N+](=O)[O-] |
